From patent publication US11203577B2, “Sulfonyl-structure-containing triazinone derivatives, their preparation methods and their uses in insect killing and/or bacterium killing” (Nankai University, priority 2017, dated 2021)
Like-named read-outs stand apart in the source and are kept apart here.

Columns and labels:
Cotton bollworms = test: Test of insecticidal activity against cotton bollworms (pesticide mixed into feedstuff); conditions: read-out: Mortalities (%) Cotton bollworms
Method: Method of testing against cotton bollworms: the pesticide is mixed into the feedstuff, i.e., 3 mL prepared solution is added into about 27 g freshly prepared feedstuff; thus, required concentration is obtained by diluting by 10 times.

[1] = tested on: Corn southern leaf blight; test: In vitro fungicidal activity, PDA colony diameter; format: cell-based; conditions: 50 mg/kg, inhibition of colony diameter; read-out: Fungicidal activity (%) Corn southern leaf blight
Wheat sheath blight = test: In vitro fungicidal activity, PDA colony diameter; format: cell-based; conditions: 50 mg/kg, inhibition of colony diameter; read-out: Fungicidal activity (%) Wheat sheath blight
[2] = tested on: mosquito larvae (Culer pipiens pallens); test: Test of insecticidal activity against mosquito larvae (checked after 24 h); conditions: for mortality at 1 mg/kg / mortality at 2 mg/kg / mortality at 5 mg/kg / mortality at 10 mg/kg: 24 h, read-out: Mortalities (%) against mosquito larvae; for insecticidal activity against mosquito larvae: in vivo
Watermelon anthracnose = test: In vitro fungicidal activity, PDA colony diameter; format: cell-based; conditions: 50 mg/kg, inhibition of colony diameter; read-out: Fungicidal activity (%) Watermelon anthracnose
[3] = tested on: Cercospora brown spot of peanut; test: In vitro fungicidal activity, PDA colony diameter; format: cell-based; conditions: 96 h, 50 mg/kg, inhibition of colony diameter, read-out: Fungicidal activity (%) Cercospora brown spot of peanut
Tomato early blight = test: In vitro fungicidal activity, PDA colony diameter; format: cell-based, Alternaria solani; conditions: 50 mg/kg, inhibition of colony diameter; read-out: Fungicidal activity (%) Tomato early blight
Cucumber fusarium wilt = test: In vitro fungicidal activity, PDA colony diameter; format: cell-based; conditions: 96 h, 50 mg/kg, inhibition of colony diameter, read-out: Fungicidal activity (%) Cucumber fusarium wilt
Armyworms = test: Test of insecticidal activity against armyworms (leaf immersion); conditions: 600 mg/kg, 3-4 days
Rice bakanae disease = test: In vitro fungicidal activity, PDA colony diameter; format: cell-based; conditions: 50 mg/kg, inhibition of colony diameter; read-out: Fungicidal activity (%) Rice bakanae disease
Maize borers = test: Test of insecticidal activity against maize borers (leaf immersion); conditions: read-out: Mortalities (%) Maize borers
[4] = tested on: bean aphides (Aphis laburni Kaltenbach); test: Test of insecticidal activity against aphides (leaf immersion, checked after 96 h); conditions: for insecticidal activity against aphides compared with pymetrozine: 5 mg/kg; for mortality at 5 mg/kg / mortality at 10 mg/kg / mortality at 100 mg/kg / mortality at 600 mg/kg: Aphis, 96 h, read-out: Mortalities (%) against aphides
Wheat head blight = test: whole plant or invertebrate; format: cell-based; conditions: Triticum aestivum, read-out: Fungicidal activity (%) Wheat head blight
[5] = tested on: Capsicum phytophthora blight; test: In vitro fungicidal activity, PDA colony diameter; format: cell-based; conditions: 96 h
Method in brief: (§1)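 Percent growth inhibition derived from colony diameter versus compound-free PDA control after 4 days' culture. Plates contained compound at 50 mg/kg; inoculum was a plug taken from the periphery of a 7-day PDA culture.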

Apple ring rot = test: In vitro fungicidal activity, PDA colony diameter; format: cell-based; conditions: inhibition of colony diameter
Method in brief: as §1

Rice sheath blight = test: In vitro fungicidal activity, PDA colony diameter; format: cell-based; conditions: read-out: Fungicidal activity (%) Rice sheath blight
Potato late blight = test: microbe, parasite or virus in culture; format: cell-based; conditions: Phytophthora infestans, 96 h, read-out: Fungicidal activity (%) Potato late blight
Sclerotinia rot of colza = test: In vitro fungicidal activity, PDA colony diameter; format: cell-based; conditions: 96 h, 50 mg/kg, inhibition of colony diameter, read-out: Fungicidal activity (%) Sclerotinia rot of colza
[6] = 50 mg/kg, inhibition of colony diameter

Structure (SMILES)	mortality at 600 mg/kg (Cotton bollworms) [%]	inhibition at 50 mg/kg [1] [%]	inhibition at 50 mg/kg (Wheat sheath blight) [%]	mortality at 10 mg/kg [2] [%]	inhibition at 50 mg/kg (Watermelon anthracnose) [%]	inhibition of growth at 50 mg/kg [3] [%]	inhibition at 50 mg/kg (Tomato early blight) [%]	inhibition of growth at 50 mg/kg (Cucumber fusarium wilt) [%]	Mortalities (%) Armyworms (Armyworms) [%]	inhibition at 50 mg/kg (Rice bakanae disease) [%]	mortality at 600 mg/kg (Maize borers) [%]	mortality at 10 mg/kg [4] [%]	mortality at 100 mg/kg [4] [%]	mortality at 600 mg/kg [4] [%]	inhibition at 50 mg/kg (Wheat head blight) [%]	inhibition of growth at 50 mg/kg [5] [%]	inhibition at 50 mg/kg (Apple ring rot) [%]	inhibition at 50 mg/kg (Rice sheath blight; [6]) [%]	inhibition of growth at 50 mg/kg (Potato late blight) [%]	inhibition of growth at 50 mg/kg (Sclerotinia rot of colza) [%]	other results
CC1=NNC(=O)N(NS(=O)(=O)c2ccc(I)cc2)C1 [Ia-23, 4-iodo-N-(6-methyl-3-oxo-2,3-dihydro-1,2,4-triazin-4(5H)-yl)-benzenesulfonamide]	30	25	21.7	100	68.4	28	19.4	8.8	25	20.7	20	100	100	100	10.8	38.9	25.7	29.1	34.3	31.6	mortality at 1 mg/kg [2]: 30%; mortality at 2 mg/kg [2]: 100%; mortality at 5 mg/kg [2]: 100%; insecticidal activity against mosquito larvae [2]: relatively high insecticidal activity; insecticidal activity against aphides compared with pymetrozine [4]: equivalent to the insecticidal activity of pymetrozine; mortality at 5 mg/kg [4]: 45%
CC(=O)Nc1ccc(S(=O)(=O)NN2CC(C)=NNC2=O)cc1 [Ia-24, N-(4-(N-(6-methyl-3-oxo-2,3-dihydro-1,2,4-triazin-4(5H)-yl)sulfamyl)phenyl)acetamide]	50	25	52.3	100	12.5	15.8	23.8	0	5	27.8	5	75	95	100	6.7	24.5	13.8	50.8	22.2	40	mortality at 5 mg/kg [2]: 45%; mortality at 5 mg/kg [4]: 10%
CC1=NNC(=O)N(NS(=O)(=O)c2ccc(C#N)cc2)C1 [Ia-25, 4-cyano-N-(6-methyl-3-oxo-2,3-dihydro-1,2,4-triazin-4(5H)-yl)-benzenesulfonamide]	35	0	14.3	100	24.6	12	16.4	8.8	10	17.2	25	85	100	100	5.4	22.2	4.1	13.9	18.7	26.3	mortality at 2 mg/kg [2]: 40%; mortality at 5 mg/kg [2]: 100%; insecticidal activity against aphides compared with pymetrozine [4]: equivalent to the insecticidal activity of pymetrozine; mortality at 5 mg/kg [4]: 20%
CC1=NNC(=O)N(NS(=O)(=O)c2ccc(C(F)(F)F)cc2)C1 [Ia-26, N-(6-methyl-3-oxo-2,3-dihydro-1,2,4-triazin-4(5H)-yl)-4-(trifluoromethyl)-benzenesulfonamide]	0	6.3	0	100	34.4	12	13.4	2.9	45	17.2	40	100	100	100	13.5	27.8	23	20.9	34.3	15.8	mortality at 1 mg/kg [2]: 20%; mortality at 2 mg/kg [2]: 100%; mortality at 5 mg/kg [2]: 100%; insecticidal activity against mosquito larvae [2]: relatively high insecticidal activity; insecticidal activity against aphides compared with pymetrozine [4]: equivalent to the insecticidal activity of pymetrozine; mortality at 5 mg/kg [4]: 30%
CC1=NNC(=O)N(NS(=O)(=O)c2ccc(OC(F)(F)F)cc2)C1 [Ia-27, N-(6-methyl-3-oxo-2,3-dihydro-1,2,4-triazin-4(5H)-yl)-4-(trifluoromethoxy)-benzenesulfonamide]	25	15.6	4.3	100	16.4	12	16.4	0	5	17.2	15	100	100	100	16.2	27.8	24.3	17.4	28.1	15.8	mortality at 2 mg/kg [2]: 20%; mortality at 5 mg/kg [2]: 90%; insecticidal activity against aphides compared with pymetrozine [4]: equivalent to the insecticidal activity of pymetrozine; mortality at 5 mg/kg [4]: 35%
CC1=NNC(=O)N(NS(=O)(=O)c2cccs2)C1 [Ia-28, N-(6-methyl-3-oxo-2,3-dihydro-1,2,4-triazin-4(5H)-yl)-thienyl-2-sulfonamide]	10	18.7	8.7	100	0	12	23.9	0	5	17.2	5	65	100	100	8.1	25	0	17.4	0	15.8	mortality at 5 mg/kg [2]: 20%
CC1=NNC(=O)N(NS(=O)(=O)c2ccsc2)C1 [Ia-29, N-(6-methyl-3-oxo-2,3-dihydro-1,2,4-triazin-4(5H)-yl)-thienyl-3-sulfonamide]	20	13.9	20.8	35	18.8	19.2	25	12.8	10	3.7	15	30	85	95	21.2	23.1	52.4	35.7	23.8	12.5	–
CC1=NNC(=O)N(NS(=O)(=O)c2c(C)noc2C)C1 [Ia-30, 3,5-dimethyl-N-(6-methyl-3-oxo-2,3-dihydro-1,2,4-triazin-4(5H)-yl)-isoxazolyl-4-sulfonamide]	25	19.4	7.5	35	25	19.2	20	23.1	20	14.8	15	–	45	95	12.1	11.5	23.8	–	14.3	12.5	inhibition at 50 mg/kg (Rice sheath blight): 14.3%
